# Measured values from US20120220554A1, “Combretastatins for Prevention of Posterior Capsule Opacification” (OXIGENE, INC., priority 2010, published 2012).
# How the values were obtained:
# [1] = tested on: Primary bovine lens epithelial cells; experiment: Wound edge migration, multi-layering and EMT hallmarks of primary lens epithelial cells on the lens capsule; type: cell-based
# Procedure: We tested CA4P as a potential inhibitor of lens epithelial cells epithelial-mesenchymal transition (EMT) during posterior capsular opacification (PCO), a common complication of cataract surgery. […] This effect persisted up to 48 h after CA4P exposure. Lens epithelial cell proliferation was also affected, as assayed by Ki67 immunofluorescence, MTT-based cell viability assays and cell cycle analysis by flow cytometry. Hallmarks of EMT, namely loss of cell polarity and migratory behavior, were also investigated in primary bovine lens epithelial cells grown on the lens capsule and were decreased by CA4P exposure, although cell multilayering seemed unaffected.
# (FIG. 5). In addition, primary bovine lens epithelial cells grown on the lens capsule in serum-free conditions for 48 h move away from the wound edge.
# [2] = tested on: phospho-Erk in BIE cells; experiment: Erk phosphorylation immunoblot in BIE cells; type: cell-based, bovine
# Procedure: (§1) Phospho-Erk ½ levels were elevated immediately after the end of CA4P exposure in both control and treated cells and decreased 1 h after the end of CA4P exposure in both control and treated cells (FIG. 7). […] Therefore, it could be hypothesized that, in primary cells, a general stress response due to dissection will mask CA4P's effect on Erk phosphorylation. Phosphorylated p38 and JNK levels were not affected by CA4P treatment (data not shown).
# [3] = tested on: Phosphorylated JNK; experiment: Phosphorylated JNK level; type: cell-based, bovine; details: CA4P treatment (data not shown)
# Procedure: as §1
# [4] = 30 min exposure to 1 mM CA4P immediately after wounding, serum-free, 48 h (data not shown)
compound,measurement,setting,value
"COc1ccc(/C=C\c2cc(OC)c(OC)c(OC)c2)cc1OP(=O)(O)O [CA4P, combretastatin A-4 phosphate]",cell multi-layering,[1]; [4],does not prevent cell multi-layering
same,cells moving away from the wound edge,[1]; [4],prevents the cells from leaving the wound edge
same,hallmarks of EMT: loss of cell polarity and migratory behavior,[1]; primary bovine lens epithelial cells grown on the lens capsule,decreased
same,phospho-Erk levels,[2]; 1 h after the end of CA4P exposure,returned to control levels
same,phospho-Erk levels,[2]; immediately after the end of CA4P exposure,elevated
same,Phosphorylated JNK levels,[3],not affected
